# What was measured:
# MDA-MB-231 = assay: Antitumor activity against human MDA-MB-231/ATCC cells assessed as cell growth at 0.1 uM; format: functional; settings: read-out: Activity
# HCT-116 = assay: Antitumor activity against human HCT116 cells assessed as cell growth at 0.1 uM; format: functional; settings: read-out: Activity
# [1] = Antitumor activity against human EKVX cells assessed as cell growth at 0.1 uM; format: functional; settings: read-out: Activity
# [2] = Antitumor activity against human HCC2998 cells assessed as cell growth at 0.1 uM; format: functional; settings: HCC 2998, read-out: Activity
# HOP-62 = assay: Antitumor activity against human HOP62 cells assessed as cell growth at 0.1 uM; format: functional; settings: read-out: Activity
# NCI-H460 = assay: Antitumor activity against human NCI-H460 cells assessed as cell growth at 0.1 uM; format: functional; settings: read-out: Activity
# SN12C = assay: Antitumor activity against human SN12C cells assessed as cell growth at 0.1 uM; format: functional; settings: read-out: Activity
# MDA-MB-468 = assay: Antitumor activity against human MDA-MB-468 cells assessed as cell growth at 0.1 uM; format: functional; settings: read-out: Activity
# Aspergillus niger = assay: Antimicrobial activity against Aspergillus niger MTCC 282 assessed as growth inhibition measured after overnight incubation by broth dilution method; format: functional
# LOX IMVI = assay: Antitumor activity against human LOXIMVI cells assessed as cell growth at 0.1 uM; format: functional; settings: read-out: Activity
# UACC-257 = assay: Antitumor activity against human UACC257 cells assessed as cell growth at 0.1 uM; format: functional; settings: read-out: Activity
# Streptococcus pyogenes = assay: Antimicrobial activity against Streptococcus pyogenes MTCC 442 assessed as growth inhibition measured after overnight incubation by broth dilution method; format: functional
# Aspergillus clavatus = assay: Antimicrobial activity against Aspergillus clavatus MTCC 1323 assessed as growth inhibition measured after overnight incubation by broth dilution method; format: functional
# [3] = test system: Mycobacterium tuberculosis; assay: Antitubercular activity against Mycobacterium tuberculosis H37Rv assessed as growth inhibition after 12 to 28 days by L.J. agar MIC method; format: functional; settings: for MIC: Mycobacterium tuberculosis, H37Rv
# HT-29 = assay: Antitumor activity against human HT-29 cells assessed as cell growth at 0.1 uM; format: functional; settings: read-out: Activity
# A549 = assay: Antitumor activity against human A549/ATCC cells assessed as cell growth at 0.1 uM; format: functional; settings: read-out: Activity
# OVCAR-8 = assay: Antitumor activity against human OVCAR8 cells assessed as cell growth at 0.1 uM; format: functional; settings: read-out: Activity
# OVCAR-5 = assay: Antitumor activity against human OVCAR5 cells assessed as cell growth at 0.1 uM; format: functional; settings: read-out: Activity
# HCT-15 = assay: Antitumor activity against human HCT15 cells assessed as cell growth at 0.1 uM; format: functional; settings: read-out: Activity
# Escherichia coli = assay: Antimicrobial activity against Escherichia coli MTCC 443 assessed as growth inhibition measured after overnight incubation by broth dilution method; format: functional
# CCRF-CEM = assay: Antitumor activity against human CCRF-CEM cells assessed as cell growth at 0.1 uM; format: functional; settings: read-out: Activity
# PC-3 = assay: Antitumor activity against human PC3 cells assessed as cell growth at 0.1 uM; format: functional; settings: read-out: Activity
# SK-MEL-2 = assay: cells; settings: Homo sapiens, SK-MEL-2, read-out: Activity
# Description: Antitumor activity against human SK-MEL-2 cells assessed as cell growth at 0.1 uM
# OVCAR-3 = assay: Antitumor activity against human OVCAR3 cells assessed as cell growth at 0.1 uM; format: functional; settings: read-out: Activity
# Staphylococcus aureus = assay: Antimicrobial activity against Staphylococcus aureus MTCC 96 assessed as growth inhibition measured after overnight incubation by broth dilution method; format: functional
# UACC-62 = assay: Antitumor activity against human UACC62 cells assessed as cell growth at 0.1 uM; format: functional; settings: read-out: Activity
# SK-OV-3 = assay: Antitumor activity against human SKOV3 cells assessed as cell growth at 0.1 uM; format: functional; settings: read-out: Activity
# SK-MEL-5 = assay: Antitumor activity against human SK-MEL-5 cells assessed as cell growth at 0.1 uM; format: functional; settings: read-out: Activity
# CAKI-1 = assay: Antitumor activity against human CAKI-1 cells assessed as cell growth at 0.1 uM; format: functional; settings: read-out: Activity
# BT-549 = assay: Antitumor activity against human BT549 cells assessed as cell growth at 0.1 uM; format: functional; settings: read-out: Activity
# A498 = assay: Antitumor activity against human A498 cells assessed as cell growth at 0.1 uM; format: functional; settings: read-out: Activity
# OVCAR-4 = assay: Antitumor activity against human OVCAR4 cells assessed as cell growth at 0.1 uM; format: functional; settings: read-out: Activity
# ACHN = assay: Antitumor activity against human ACHN cells assessed as cell growth at 0.1 uM; format: functional; settings: read-out: Activity
# NCI/ADR-RES = assay: Antitumor activity against human NCI/ADR-RES cells assessed as cell growth at 0.1 uM; format: functional; settings: read-out: Activity
# Pseudomonas aeruginosa = assay: Antimicrobial activity against Pseudomonas aeruginosa MTCC 2488 assessed as growth inhibition measured after overnight incubation by broth dilution method; format: functional
# K562 = assay: Antitumor activity against human K562 cells assessed as cell growth at 0.1 uM; format: functional; settings: read-out: Activity
# SNB-75 = assay: Antitumor activity against human SNB75 cells assessed as cell growth at 0.1 uM; format: functional; settings: read-out: Activity
# SK-MEL-28 = assay: Antitumor activity against human SK-MEL-28 cells assessed as cell growth at 0.1 uM; format: functional; settings: read-out: Activity
# M14 = assay: Antitumor activity against human M14 cells assessed as cell growth at 0.1 uM; format: functional; settings: read-out: Activity
# U-251 = assay: Antitumor activity against human U251 cells assessed as cell growth at 0.1 uM; format: functional; settings: read-out: Activity
# [4] = Antitumor activity against human Hs 578T cells assessed as cell growth at 0.1 uM; format: functional; settings: read-out: Activity
# MDA-MB-435 = assay: Antitumor activity against human MDA-MB-435 cells assessed as cell growth at 0.1 uM; format: functional; settings: read-out: Activity
# SW-620 = assay: Antitumor activity against human SW620 cells assessed as cell growth at 0.1 uM; format: functional; settings: read-out: Activity
# T47D = assay: Antitumor activity against human T47D cells assessed as cell growth at 0.1 uM; format: functional; settings: read-out: Activity
# NCI-H23 = assay: Antitumor activity against human NCI-H23 cells assessed as cell growth at 0.1 uM; format: functional; settings: read-out: Activity
# TK-10 = assay: Antitumor activity against human TK10 cells assessed as cell growth at 0.1 uM; format: functional; settings: read-out: Activity
# SR = assay: Antitumor activity against human SR cells assessed as cell growth at 0.1 uM; format: functional; settings: read-out: Activity
# NCI-H226 = assay: Antitumor activity against human NCI-H226 cells assessed as cell growth at 0.1 uM; format: functional; settings: read-out: Activity
# MOLT-4 = assay: Antitumor activity against human MOLT4 cells assessed as cell growth at 0.1 uM; format: functional; settings: read-out: Activity
# UO-31 = assay: Antitumor activity against human UO31 cells assessed as cell growth at 0.1 uM; format: functional; settings: read-out: Activity
# RXF 393 = assay: Antitumor activity against human RXF393 cells assessed as cell growth at 0.1 uM; format: functional; settings: read-out: Activity
# IGROV-1 = assay: Antitumor activity against human IGROV1 cells assessed as cell growth at 0.1 uM; format: functional; settings: read-out: Activity
# MCF7 = assay: Antitumor activity against human MCF7 cells assessed as cell growth at 0.1 uM; format: functional; settings: read-out: Activity
# SNB-19 = assay: Antitumor activity against human SNB19 cells assessed as cell growth at 0.1 uM; format: functional; settings: read-out: Activity
# SF-295 = assay: Antitumor activity against human SF295 cells assessed as cell growth at 0.1 uM; format: functional; settings: read-out: Activity
# SF-268 = assay: Antitumor activity against human SF268 cells assessed as cell growth at 0.1 uM; format: functional; settings: read-out: Activity
# Malme-3M = assay: Antitumor activity against human MALME-3M cells assessed as cell growth at 0.1 uM; format: functional; settings: read-out: Activity
# SF-539 = assay: Antitumor activity against human SF539 cells assessed as cell growth at 0.1 uM; format: functional; settings: read-out: Activity
# Candida albicans = assay: Antimicrobial activity against Candida albicans MTCC 227 assessed as growth inhibition measured after overnight incubation by broth dilution method; format: functional
# RPMI-8226 = assay: Antitumor activity against human RPMI8226 cells assessed as cell growth at 0.1 uM; format: functional; settings: read-out: Activity
# NCI-H522 = assay: Antitumor activity against human NCI-H522 cells assessed as cell growth at 0.1 uM; format: functional; settings: read-out: Activity
# DU-145 = assay: Antitumor activity against human DU145 cells assessed as cell growth at 0.1 uM; format: functional; settings: read-out: Activity
# HL-60 = assay: Antitumor activity against human HL60(TB) cells assessed as cell growth at 0.1 uM; format: functional; settings: read-out: Activity
smiles,measurement,setting,value
O=C(CSc1nnc(-c2cccnc2SCc2ccccc2)o1)Nc1nc(Cl)cc(Cl)n1,growth at 0.1 µM,MDA-MB-231,92%
same,growth at 0.1 µM,HCT-116,97.2%
same,growth at 0.1 µM,[1],103%
same,growth at 0.1 µM,[2],103%
same,growth at 0.1 µM,HOP-62,90.6%
same,growth at 0.1 µM,NCI-H460,105%
same,growth at 0.1 µM,SN12C,103%
same,growth at 0.1 µM,MDA-MB-468,98.8%
same,MIC,Aspergillus niger,500 µg/mL
same,growth at 0.1 µM,LOX IMVI,94.9%
same,growth at 0.1 µM,UACC-257,113%
same,MIC,Streptococcus pyogenes,200 µg/mL
same,MIC,Aspergillus clavatus,500 µg/mL
same,growth inhibition (GI),[3],98%
same,MIC,[3],100 µg/mL
same,growth at 0.1 µM,HT-29,110%
same,growth at 0.1 µM,A549,104%
same,growth at 0.1 µM,OVCAR-8,102%
same,growth at 0.1 µM,OVCAR-5,106%
same,growth at 0.1 µM,HCT-15,106%
same,MIC,Escherichia coli,200 µg/mL
same,growth at 0.1 µM,CCRF-CEM,101%
same,growth at 0.1 µM,PC-3,94.5%
same,growth at 0.1 µM,SK-MEL-2,102%
same,growth at 0.1 µM,OVCAR-3,106%
same,MIC,Staphylococcus aureus,250 µg/mL
same,growth at 0.1 µM,UACC-62,101%
same,growth at 0.1 µM,SK-OV-3,110%
same,growth at 0.1 µM,SK-MEL-5,101%
same,growth at 0.1 µM,CAKI-1,95.8%
same,growth at 0.1 µM,BT-549,102%
same,growth at 0.1 µM,A498,112%
same,growth at 0.1 µM,OVCAR-4,106%
same,growth at 0.1 µM,ACHN,103%
same,growth at 0.1 µM,NCI/ADR-RES,101%
same,MIC,Pseudomonas aeruginosa,200 µg/mL
same,growth at 0.1 µM,K562,92.8%
same,growth at 0.1 µM,SNB-75,85.7%
same,growth at 0.1 µM,SK-MEL-28,113%
same,growth at 0.1 µM,M14,92%
same,growth at 0.1 µM,U-251,106%
same,growth at 0.1 µM,[4],97.4%
same,growth at 0.1 µM,MDA-MB-435,105%
same,growth at 0.1 µM,SW-620,103%
same,growth at 0.1 µM,T47D,98.5%
same,growth at 0.1 µM,NCI-H23,102%
same,growth at 0.1 µM,TK-10,109%
same,growth at 0.1 µM,SR,101%
same,growth at 0.1 µM,NCI-H226,83.7%
same,growth at 0.1 µM,MOLT-4,95.7%
same,growth at 0.1 µM,UO-31,67.7%
same,growth at 0.1 µM,RXF 393,105%
same,growth at 0.1 µM,IGROV-1,105%
same,growth at 0.1 µM,MCF7,92%
same,growth at 0.1 µM,SNB-19,106%
same,growth at 0.1 µM,SF-295,96.8%
same,growth at 0.1 µM,SF-268,99.8%
same,growth at 0.1 µM,Malme-3M,94%
same,growth at 0.1 µM,SF-539,101%
same,MIC,Candida albicans,1000 µg/mL
same,growth at 0.1 µM,RPMI-8226,100%
same,growth at 0.1 µM,NCI-H522,83.1%
same,growth at 0.1 µM,DU-145,107%
same,growth at 0.1 µM,HL-60,98.3%
O=C(CSc1nnc(-c2cccnc2SCc2ccccc2)o1)Nn1cnnc1,MIC,Aspergillus niger,1000 µg/mL
same,MIC,Streptococcus pyogenes,125 µg/mL
same,MIC,Aspergillus clavatus,500 µg/mL
same,growth inhibition (GI),[3],99%
same,MIC,[3],25 µg/mL
same,MIC,Escherichia coli,100 µg/mL
same,MIC,Staphylococcus aureus,250 µg/mL
same,MIC,Pseudomonas aeruginosa,125 µg/mL
same,MIC,Candida albicans,100 µg/mL
N#CSc1ccc2nc(NC(=O)CSc3nnc(-c4cccnc4SCc4ccccc4)o3)sc2c1,MIC,Aspergillus niger,100 µg/mL
same,MIC,Streptococcus pyogenes,12.5 µg/mL
same,MIC,Aspergillus clavatus,250 µg/mL
same,growth inhibition (GI),[3],99%
same,MIC,[3],50 µg/mL
same,MIC,Escherichia coli,250 µg/mL
same,MIC,Staphylococcus aureus,250 µg/mL
same,MIC,Pseudomonas aeruginosa,62.5 µg/mL
same,MIC,Candida albicans,500 µg/mL
CCOC(=O)CSc1nnc(-c2cccnc2SCc2ccccc2)o1,MIC,Aspergillus niger,1000 µg/mL
same,MIC,Streptococcus pyogenes,125 µg/mL
same,MIC,Aspergillus clavatus,1000 µg/mL
same,growth inhibition (GI),[3],98%
same,MIC,[3],100 µg/mL
same,MIC,Escherichia coli,500 µg/mL
same,MIC,Staphylococcus aureus,500 µg/mL
same,MIC,Pseudomonas aeruginosa,200 µg/mL
same,MIC,Candida albicans,1000 µg/mL

# Source: ChEMBL document CHEMBL2331210, “New 2-benzylsulfanyl-nicotinic acid based 1,3,4-oxadiazoles: their synthesis and biological evaluation” (2013)
